Data from paper PMC9936582, “Sulfamate Acetamides as Self-Immolative Electrophiles for Covalent Ligand-Directed Release Chemistry” (Journal of the American Chemical Society, 2023).
Entries after “also recorded” stand apart in the source; their conditions may differ. Blank lines part the entries; values can stand above or below the compound they belong to.

Experiments:
[1] = GSH consumption assay (LC/MS); details: for reactivity towards GSH relative to chloroacetamide (1a): 5 mM GSH, 200 μM electrophile, pH 8, 14 °C; for covalent bond formation with GSH: assay conditions or temperatures up to 37 °C for 24 h
[2] = Glutamic acid reactivity of model compounds (LC/MS); details: pH 8, 37 °C; 4 days
BTK [3] = biological target: T1, BTK (Homo sapiens, UniProt Q06187); test: BTK activity (autophosphorylation) in Mino cells, Western blot; assay type: cell-based; set-up: endogenous in cells; host or cells: Mino cells
Method: To assess the cellular efficacy of these compounds, we followed the inhibition of BTK autophosphorylation in Mino cells. After 1 h of pre-incubation with the inhibitors and B-cell activation with an anti-IgM antibody, BTK autophosphorylation was followed by Western blot.
The cell pellets were subjected to immunoblotting, and Western blots were performed for p-BTK, BTK, and β-actin.
Cell pellets were washed with ice-cold PBS and lysed using RIPA buffer (Sigma, R0278). […] Samples containing 50 μg total protein were prepared with 4× LDS sample buffer (NuPAGE, Thermo Scientific, NP0007) and 20 mM DTT, which were then resolved on a 4–20% Bis–Tris gel (GeneScript SurePAGE, M00657). […] An EZ-ECL Kit (Biological Industries, 20-500-1000) was used to detect HRP activity.
Target sequence in this assay (Q06187 whole entry): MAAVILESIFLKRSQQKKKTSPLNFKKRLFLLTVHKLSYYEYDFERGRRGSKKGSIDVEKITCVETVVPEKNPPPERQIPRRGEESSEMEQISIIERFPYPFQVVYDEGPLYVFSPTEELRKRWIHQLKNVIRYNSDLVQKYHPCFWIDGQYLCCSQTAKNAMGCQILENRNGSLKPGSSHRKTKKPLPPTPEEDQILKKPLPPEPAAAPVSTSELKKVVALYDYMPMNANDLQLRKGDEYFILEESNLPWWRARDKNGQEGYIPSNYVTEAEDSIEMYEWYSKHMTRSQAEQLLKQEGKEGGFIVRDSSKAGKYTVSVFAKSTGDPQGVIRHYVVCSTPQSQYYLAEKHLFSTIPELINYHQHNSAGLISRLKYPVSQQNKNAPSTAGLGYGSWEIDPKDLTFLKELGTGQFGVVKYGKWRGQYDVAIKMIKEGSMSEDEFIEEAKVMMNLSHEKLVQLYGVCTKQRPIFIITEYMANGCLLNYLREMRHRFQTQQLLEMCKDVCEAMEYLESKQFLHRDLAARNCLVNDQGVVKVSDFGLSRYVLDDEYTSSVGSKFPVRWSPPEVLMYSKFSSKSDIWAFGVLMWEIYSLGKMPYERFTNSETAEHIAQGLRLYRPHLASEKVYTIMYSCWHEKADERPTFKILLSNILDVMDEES

BTK [4] = biological target: T1, BTK; test: In vitro kinase activity assay (Nanosyn); details: for BTK inhibition (in words): 0.5 nM BTK, 5 μM ATP
Target sequence in this assay (Q06187 whole entry): as above

BTK [5] = biological target: T1, BTK; test: Intact protein mass spectrometry labeling of recombinant BTK; assay type: binding; set-up: BTK kinase domain was expressed and purified as previously reported; made in house; details: 2 μM BTK, 2 μM compound, pH 8, 25 °C
Method: BTK kinase domain was expressed and purified as previously reported.[66] Binding experiments were performed in Tris 20 mM (pH 8.0) and 50 mM NaCl at room temperature.
(§1) The reaction mixtures, at room temperature for various times, were injected into the LC/MS. For data analysis, the raw spectra were deconvoluted using a 20,000:40,000 Da (For Pin1, 10,000:30,000) window and 1 Da resolution. The labeling percentage for a compound was determined as the labeling of a specific compound (alone or together with other compounds) divided by the overall detected protein species.
Target sequence in this assay (Q06187 402-655 limits assumed): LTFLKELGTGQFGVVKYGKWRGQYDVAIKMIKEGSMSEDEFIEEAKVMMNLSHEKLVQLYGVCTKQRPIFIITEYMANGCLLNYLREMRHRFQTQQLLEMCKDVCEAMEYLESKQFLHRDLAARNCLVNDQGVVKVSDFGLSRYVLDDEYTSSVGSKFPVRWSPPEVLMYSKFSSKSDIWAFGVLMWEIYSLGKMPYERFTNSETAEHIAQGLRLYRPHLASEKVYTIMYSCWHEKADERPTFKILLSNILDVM

Buffer stability assay = assay type: physicochemical
Pin1 = biological target: T2, Pin1 (Homo sapiens, UniProt Q13526); test: Intact protein MS labeling of Pin1; assay type: binding; details: 2 μM Pin1, 2 μM compound, pH 7.5, 1 h, 25 °C
T2 construct: The catalytic domain of Pin1 (2 μM) in […] and 75 mM NaCl (pH 7.5) was incubated; made in house
T2 sequence (Q13526 52-163 limits assumed): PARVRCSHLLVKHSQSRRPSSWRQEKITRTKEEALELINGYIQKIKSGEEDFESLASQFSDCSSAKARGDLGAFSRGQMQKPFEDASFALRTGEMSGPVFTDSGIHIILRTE
Method: Initially, we incubated these compounds (4a–4g; 2 μM) with Pin1 (2 μM; 50 mM Tris buffer; pH 7.5, 1 h; 25 °C) to check covalent labeling by intact protein MS (Figure 5B,C; Figure S23). Under these conditions, sulfopin labeled 59% as previously reported;[38] the sulfonate (4a) labeled 18%, whereas alkyl sulfamates (4b and 4c) labeled 16 and 56%, respectively. […] We have previously reported that replacing the tert-butyl group in sulfopin by a cyclohexyl increases the labeling along with intrinsic thiol reactivity. Compound 4g contains a cyclohexyl group instead of the tert-butyl and a phenyl sulfamate electrophile and was able to label >95% of Pin1 under these conditions.
Pin1 was expressed and purified as previously reported.[38] The catalytic domain of Pin1 (2 μM) in […] and 75 mM NaCl (pH 7.5) was incubated with 2 μM sulfopin sulfamate (4a–4g) for 1 h at 25 °C.
as §1

[6] = DTNB thiol reactivity assay; assay type: physicochemical
Method: The compound 5,5′-dithio-bis(2-nitrobenzoic acid) (DTNB; 50 μM) was incubated with 200 μM tris(2-carboxyethyl)phosphine (TCEP) in 20 mM sodium phosphate buffer (pH 7.4) and 150 mM NaCl for 5 min at room temperature to obtain TNB^–2. […] UV absorbance was acquired every 15 min for 7 h. The assay was performed in a 384-well plate using a Tecan Spark 10 M plate reader. […] Compounds were measured in triplicate. The data were fitted to a second-order reaction equation such that the rate constant (K) is the slope of ln([A][B0]/[B][A0]), where [A0] and [B0] are the initial concentrations of the compound (200 μM) and TNB^–2 (100 μM), respectively, and [A] and [B] are the remaining concentrations as a function of time as deduced from spectrometric measurements. Linear regression using Prism was performed to fit the rate against the first 7 h of measurements.

[7] = Metabolic stability of sulfopin analogues in liver microsomes; assay type: in vitro ADME
Method: Next, we examined the buffer stability of the sulfopin sulfamate acetamides in PBS buffer (pH 8; 37 °C). Similar to the model compounds, the chloroacetamide (sulfopin) and sulfonate (4a) warheads show 30 and 15% hydrolysis after 2 days, respectively (Figure S26).
Figure S27: Sulfopin sulfamates show high metabolic stability: Compounds (Sulfopin, 4d, and 4g) were incubated
in liver microsomes and injected to LC/MS/MS at indicated time points. The peak intensities of the compounds were […]

- reactivity towards GSH relative to chloroacetamide (1a) [1]: an order of magnitude less reactivity
- reaction with glutamic acid [2]: did not react
Compound: CNS(=O)(=O)OCC(=O)NCc1ccccc1 [1d]

- reactivity towards GSH relative to chloroacetamide (1a) [1]: an order of magnitude less reactivity
- reaction with glutamic acid [2]: did not react
Compound: O=C(COS(=O)(=O)NCc1ccccc1)NCc1ccccc1 [1e]

- covalent bond formation with GSH [1]: did not form a covalent bond with GSH
Compound: CS(=O)(=O)CC(=O)NCc1ccccc1 [1i]

- covalent bond formation with GSH [1]: did not form a covalent bond with GSH
Compound: O=C(CS(=O)(=O)c1ccccc1)NCc1ccccc1 [1j]

- less potency in cellular pBTK inhibition (BTK [3]): 20 fold
- BTK inhibition (in words) (BTK [4]): potent BTK inhibition
Compound: Nc1ncnc2c1c(-c1ccc(Oc3ccccc3)cc1)nn2[C@@H]1CCCN(C(=O)CCl)C1 [3a]

- IC50 (BTK [3]; anti-IgM activation, Western blot normalized to β-actin): 6 nM
- labeling of BTK (BTK [5]; within 10 min): more than 95%
- BTK inhibition (in words) (BTK [4]): potent BTK inhibition
Compound: CS(=O)(=O)OCC(=O)N1CCC[C@@H](n2nc(-c3ccc(Oc4ccccc4)cc3)c3c(N)ncnc32)C1 [3b]

- IC50 (BTK [4]): 100 nM
Compound: Nc1ncnc2c1c(-c1ccc(Oc3ccccc3)cc1)nn2[C@@H]1CCCN(C(=O)COS(=O)(=O)Nc2ccccc2)C1 [3e]

Compound: CS(=O)(=O)CC(=O)N1CCC[C@@H](n2nc(-c3ccc(Oc4ccccc4)cc3)c3c(N)ncnc32)C1 [3f]
- covalent reaction with BTK (BTK [5]): no labeling; also recorded: failed to react covalently with BTK

- IC50 (BTK [4]): 500 nM
Compound: Nc1ncnc2c1c(-c1ccc(Oc3ccccc3)cc1)nn2[C@@H]1CCCN(C(=O)CS(=O)(=O)c2ccccc2)C1 [3g]
- covalent reaction with BTK (BTK [5]): no labeling; also recorded: failed to react covalently with BTK

- hydrolysis (buffer stability, sulfopin analogues) (Buffer stability assay; 200 μM, PBS buffer pH 8, 37 °C for four days): 15%
- hydrolysis (buffer stability, sulfopin analogues) (Buffer stability assay; PBS buffer pH 8, 37 °C, after 2 days): 15%
- labeling of Pin1 (Pin1): 18%
Compound: CC(C)(C)CN(C(=O)COS(C)(=O)=O)C1CCS(=O)(=O)C1 (stereo not drawn) [4a]

- labeling of Pin1 (Pin1): 16%
Compound: CNS(=O)(=O)OCC(=O)N(CC(C)(C)C)C1CCS(=O)(=O)C1 (stereo not drawn) [4b]

- labeling of Pin1 (Pin1): 56%
- thiol reactivity compared to sulfopin [6]: lower thiol reactivity than sulfopin
Compound: CC(C)(C)CN(C(=O)COS(=O)(=O)NCc1ccccc1)C1CCS(=O)(=O)C1 (stereo not drawn) [4c]

- labeling of Pin1 (Pin1): > 90%
- thiol reactivity compared to sulfopin [6]: lower thiol reactivity than sulfopin
Compound: CC(C)(C)CN(C(=O)COS(=O)(=O)Nc1ccc(Br)cc1)C1CCS(=O)(=O)C1 (stereo not drawn) [4e]

- labeling of Pin1 (Pin1): less than 30%
Compound: Cc1ccc(NS(=O)(=O)OCC(=O)N(CC(C)(C)C)C2CCS(=O)(=O)C2)cc1 (stereo not drawn) [4f]

- labeling of Pin1 (Pin1): > 95%
- thiol reactivity compared to sulfopin [6]: slightly higher reactivity
- metabolic stability (in words) [7]: good metabolic stability
Compound: O=C(COS(=O)(=O)Nc1ccccc1)N(CC1CCCCC1)C1CCS(=O)(=O)C1 (stereo not drawn) [4g]
